Data set [1] concerns the target T1, CYP2B6 (Homo sapiens, UniProt P20813).
T1 sequence (P20813 1-491): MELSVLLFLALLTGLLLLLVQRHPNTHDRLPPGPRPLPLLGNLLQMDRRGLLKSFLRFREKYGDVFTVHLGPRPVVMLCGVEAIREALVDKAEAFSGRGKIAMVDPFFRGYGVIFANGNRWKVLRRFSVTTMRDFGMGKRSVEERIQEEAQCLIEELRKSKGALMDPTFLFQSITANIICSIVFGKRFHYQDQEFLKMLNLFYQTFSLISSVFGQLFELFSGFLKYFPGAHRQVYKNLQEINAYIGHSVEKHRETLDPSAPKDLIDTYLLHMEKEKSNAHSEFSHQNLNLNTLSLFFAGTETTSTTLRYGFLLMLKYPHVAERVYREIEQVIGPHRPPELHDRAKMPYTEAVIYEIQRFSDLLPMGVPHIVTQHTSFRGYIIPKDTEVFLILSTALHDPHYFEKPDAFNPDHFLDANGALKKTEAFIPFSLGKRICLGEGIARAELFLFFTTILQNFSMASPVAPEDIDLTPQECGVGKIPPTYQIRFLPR
Kind of data set: Ketamine demethylation measured by formaldehyde formation. The settings on record: product formaldehyde.

Data set [2] concerns the target T1, CYP2B6. Nature of the data set: Ketamine demethylation measured by norketamine formation. The class given is in vitro ADME. Conditions: for Km at 10 min: human, pH 7.4, Km.
In data set [3] the target is T1, CYP2B6. The settings on record: human liver microsomes; cited from earlier work.
For data set [4] the following is noted: oral ketamine, first-pass metabolism; cited from earlier work.
Where [5] appears, read: N-demethylation, product R-norketamine.
Where [6] appears, read: N-demethylation, product S-norketamine.

Read-outs that look alike come from different tables or passages of the source.

In the case of `CN[C@@]1(c2ccccc2Cl)CCCCC1=O` [R-ketamine], the values for the Vmax at CYP2B6 [1] (N-demethylation) and at CYP2B6 [2] (setting [5]) were 92 ± 2 pmol・min^−1・pmol CYP^−1 and 65 ± 1 pmol・min^−1・pmol CYP^−1, respectively. Also, the Clint on CYP2B6 [1] (in vitro intrinsic clearance Vmax/Km) was found to be 6.2 ml・min^–1・nmol P450^–1; at CYP2B6 [2] (Vmax/Km, product R-norketamine), 5.7 ml・min^–1・nmol P450^–1. In addition, on CYP2B6 [2] (setting [5]), the Km turned out to be 11 ± 1 µM.

On to `CN[C@]1(c2ccccc2Cl)CCCCC1=O` [S-ketamine], for which the Km at CYP2B6 [3] was 44 µM. Moreover, the Km at 10 min at CYP2B6 [2] (setting [6]) was determined as 10 ± 1 µM.

For the molecule `CNC1(c2ccccc2Cl)CCCCC1=O` (stereo not shown) [ketamine, 2-(2-chlorophenyl)-2-(methylamino)cyclohexan-1-one], the oral bioavailability in data set [4] is reported as 15%. Also, the Km at 10 min is 4 ± 1 µM at CYP2B6 [2] (setting [5]) and 5 ± 1 µM at CYP2B6 [2] (setting [6]).

Values taken from PMC9121441 (Molecular pharmaceutics, 2019).
